Measurements as given in patent US9308179B2, “Long circulating nanoparticles for sustained release of therapeutic agents” (BIND Therapeutics, Inc., priority 2008, dated 2016).
Read-outs that look alike come from different tables or passages of the source. Marks after values point to notes of the source that are not given here.

Experiments:
[1] = Single dose pharmacokinetic study in Sprague-Dawley rats; format: in vivo; settings: male, rat
Procedure: Six- to eight-week old male Sprague-Dawley rats were administered a single bolus dose (5 mg/kg of docetaxel) of docetaxel encapsulated in nanoparticles or conventional docetaxel via a tail vein. The dose groups consisted of six rats each. Blood was drawn at 0.083, 0.5, 1, 2, 3, 4, 6, and 24 hours post-dosing and processed to plasma. The concentration of total docetaxel in plasma was measured by a liquid chromatography-mass spectrometry (LC-MS) method following extraction with methyl tert-butyl ether (MTBE).

[2] = Tumor docetaxel concentration after a single dose in human tumor xenograft model (LNCaP); format: in vivo, SCID mice; settings: male, SCID, mouse
Procedure: Male severe combined immunodeficiency (SCID) mice were subcutaneously inoculated with human LNCaP prostate cancer cells. Three to four weeks after inoculation, the mice were assigned to different treatment groups such that the average tumor volume in each group was 300 mm^3. At this time, a single intravenous (IV) dose of 50 mg/kg docetaxel was administered as either docetaxel encapsulated in nanoparticles or conventional docetaxel. The test subjects were sacrificed 2 hour or 12 hour post-dose. The tumors from each group were excised and assayed for docetaxel using liquid chromatography-mass spectrometry (LC-MS).

[3] = system: human LNCaP prostate cancer cells; experiment: Anti-tumor activity after repeated doses in human tumor xenograft model (LNCaP); format: in vivo, SCID mice; settings: Q2D for four doses, eight day holiday, another four doses; FIG. 7
Procedure: Male severe combined immunodeficiency (SCID) mice were subcutaneously inoculated with human LNCaP prostate cancer cells. Three to four weeks after inoculation, the mice were assigned to different treatment groups such that the average tumor volume in each group was 250 mm^3. Subsequently, the mice were treated every other day (Q2D) for four doses, with an eight day holiday, followed by another four doses at the Q2D schedule.

[4] = Acute dose range finding study in Sprague-Dawley rats; format: in vivo; settings: 7 days
Procedure: Sixty Sprague-Dawley rats (30/sex) were assigned to 10 dose groups (3 rats/sex/group) and were administered a single dose of either docetaxel encapsulated in nanoparticles (5.7, 7.5, 10, 15 or 30 mg/kg body weight) or conventional docetaxel (5.7, 7.5, 10, 15 or 30 mg/kg body weight).

MX-1 breast tumors = experiment: Tumor accumulation of docetaxel nanoparticles in MX-1 breast tumors; format: in vivo, mice; settings: 10 mg/kg, 24 hours after injection, LC/MS/MS
Procedure: Mice were then injected with 10 mg/kg of the test article, then euthanized 24 hours later and the tumors were removed and analyzed for docetaxel content using LC/MS/MS. Results are depicted in FIG. 12.

[5] = Pharmacokinetics of docetaxel nanoparticles in primates; format: in vivo, non human primates; parameters: Cmax/D / AUC/D: unit not given beside the values; settings: for AUC / Cl / Vz / half-life / Cmax: 30 minute IV infusion; for half-life: in vivo
Procedure: 1 male and 1 female were used per dose group. The dosing day was 1 day and the formulations were administered by 30 minute IV infusion at 25 mg/m^2 docetaxel or 50 mg/m^2 docetaxel (animals were randomized and then dosed with 50 mg/m2 on day 29 and PK, hematology and clinical chemistry were measured for 21 days). At the end of the study, PK, hematology and clinical chemistry collected over a 21 day period were assessed. FIG. 12 depicts the results of male (M) and female (F) PNP.

[6] = 5 mg/kg, cited from earlier work
[7] = Tissue distribution of radioactivity in rats after IV administration; format: in vivo, Sprague-Dawley rats
Procedure: Six- to eight-week old male Sprague-Dawley rats were administered a single bolus intravenous dose of one of the following: (1) docetaxel encapsulated in nanoparticles in which the ligand of the PLA-PEG-lys(urea)glu targeting polymer was ^14C-labeled, (2) docetaxel encapsulated in nanoparticles in which the encapsulated docetaxel was ^14C-labeled, (3) ^14C-labeled conventional docetaxel.
Blood was drawn at 1, 3, 6, 12, and 24 hours post-dosing and processed to plasma. Immediately following blood collection, the rats were euthanized by CO2 asphyxiation and tissues were immediately collected, blotted, weighed, and frozen on dry ice. Tissue samples were stored frozen (approximately −70° C.) until analysis for radioactivity by liquid scintillation (LS) counting.

[8] = plasma, 5 mg/kg single IV bolus

CC(=O)O[C@@]12CO[C@@H]1C[C@H](O)[C@@]1(C)C(=O)[C@H](O)C3=C(C)[C@@H](OC(=O)[C@H](O)[C@@H](NC(=O)OC(C)(C)C)c4ccccc4)C[C@@](O)([C@@H](OC(=O)c4ccccc4)[C@H]21)C3(C)C [Conventional Docetaxel, docetaxel]
Cmax ([1]; 5 mg/kg single IV bolus, total docetaxel in plasma): 600 ng/mL | AUC(0-inf) [1, 8]: 623 ng·h/mL | clearance [1, 8]: 38.8 mL/min/kg | tmax ([1]; plasma, 5 mg/kg single IV bolus, tmax equals the first sampling time): 5 min | half-life ([1]; plasma, iv, 5 mg/kg): 4.4 h | concentration at 2 h ([2]; 2 h after single IV dose of 50 mg/kg docetaxel): 12900 ± 7900 ng/g | concentration at 12 h ([2]; 12 h after single IV dose of 50 mg/kg docetaxel): 3600 ± 2100 ng/g | effect on tumor volume [3]: appreciable reduction in tumor volume | survival to scheduled necropsy ([4]; 5.7-30 mg/kg single dose): All test subjects survived | piloerection, female rats affected ([4]; female, Sprague-Dawley, rat, in vivo, 10 mg/kg): 1/9 | piloerection, male rats affected ([4]; male, Sprague-Dawley, rat, in vivo, 10 mg/kg): 5/9 | percent of injected dose in the tumor (MX-1 breast tumors): 3% | AUC/D ([5]; 25 mg/m2, F): 109 | Cmax/D ([5]; 25 mg/m2, F): 23.8 | AUC ([5]; 25 mg/m2, F): 2714 ng·h/mL | Cl ([5]; 25 mg/m2, F): 9213 mL/hr/m2 | Vz ([5]; 25 mg/m2, F): 412186 mL/m2 | AUC/D ([5]; 25 mg/m2, M): 102 | Cmax/D ([5]; 25 mg/m2, M): 14.6 | Cl ([5]; 25 mg/m2, M): 9794 mL/hr/m2 | Vz ([5]; 25 mg/m2, M): 253783 mL/m2 | AUC/D ([5]; 50 mg/m2, F): 72 | Cmax/D ([5]; 50 mg/m2, F): 16.7 | AUC ([5]; 50 mg/m2, F): 3599 ng·h/mL | Cl ([5]; 50 mg/m2, F): 13893 mL/hr/m2 | Vz ([5]; 50 mg/m2, F): 788340 mL/m2 | AUC/D ([5]; 50 mg/m2, M): 76.5 | Cmax/D ([5]; 50 mg/m2, M): 24.2 | Cl ([5]; 50 mg/m2, M): 13073 mL/hr/m2 | Vz ([5]; 50 mg/m2, M): 743682 mL/m2 | half-life ([5]; female, monkey, 25 mg/m2, F): 31 h | half-life ([5]; female, monkey, 50 mg/m2, F): 39 h | Cmax ([5]; female, monkey, plasma, 25 mg/m2, F): 596 ng/mL | Cmax ([5]; female, monkey, plasma, 50 mg/m2, F): 835 ng/mL | half-life ([5]; male, monkey, 25 mg/m2, M): 18 h | half-life ([5]; male, monkey, 50 mg/m2, M): 39 h | Cmax ([5]; male, monkey, plasma, 25 mg/m2, M): 364 ng/mL | AUC ([5]; male, monkey, plasma, 25 mg/m2, M, read-out: AUC): 2550 ng·h/mL | Cmax ([5]; male, monkey, plasma, 50 mg/m2, M): 1210 ng/mL | AUC ([5]; male, monkey, plasma, 50 mg/m2, M, read-out: AUC): 3280 ng·h/mL | AUC0-∞ [6]: 910 ng·h/mL | CL [6]: 91.7 mL/min/kg | Cmax [6]: 4,100 ng/mL | t1/2 ([6]; study duration was 6 hours): 0.8^b h | tmax ([6]; tmax equals the first sampling time): 2 min

CC(=O)O[C@@]12CO[C@@H]1C[C@H](O)[C@@]1(C)C(=O)[C@H](O)C3=C(C)[C@@H](OC(=O)[C@H](O)[C@@H](NC(=O)OC(C)(C)C)c4ccccc4)C[C@@](O)([C@@H](OC(=O)c4ccccc4)[C@H]21)C3(C)C [Conventional ^14C-Docetaxel, docetaxel]
Radioactivity in Bone Marrow ([7]; 1 h after IV administration): 97 ± 4.2 nCi/g | Radioactivity in Heart ([7]; 1 h after IV administration): 71 ± 2.5 nCi/g | Radioactivity in Large Intestine ([7]; 1 h after IV administration): 54 ± 3.6 nCi/g | Radioactivity in Liver ([7]; 1 h after IV administration): 78 ± 15 nCi/g | Radioactivity in Lungs ([7]; 1 h after IV administration): 82 ± 9.6 nCi/g | Radioactivity in Plasma ([7]; 1 h after IV administration): 4.9 ± 0.4 nCi/mL | Radioactivity in Small Intestine ([7]; 1 h after IV administration): 517 ± 99 nCi/g | Radioactivity in Spleen ([7]; 1 h after IV administration): 100 ± 9.4 nCi/g | Radioactivity in Bone Marrow ([7]; 3 h after IV administration): 83 ± 1.0 nCi/g | Radioactivity in Heart ([7]; 3 h after IV administration): 39 ± 1.5 nCi/g | Radioactivity in Large Intestine ([7]; 3 h after IV administration): 166 ± 37 nCi/g | Radioactivity in Liver ([7]; 3 h after IV administration): 49 ± 7.3 nCi/g | Radioactivity in Lungs ([7]; 3 h after IV administration): 66 ± 0.7 nCi/g | Radioactivity in Plasma ([7]; 3 h after IV administration): 1.9 ± 0.2 nCi/mL | Radioactivity in Small Intestine ([7]; 3 h after IV administration): 122 ± 43 nCi/g | Radioactivity in Spleen ([7]; 3 h after IV administration): 81 ± 7.5 nCi/g | Radioactivity in Bone Marrow ([7]; 6 h after IV administration): 78 ± 1.9 nCi/g | Radioactivity in Heart ([7]; 6 h after IV administration): 33 ± 1.3 nCi/g | Radioactivity in Large Intestine ([7]; 6 h after IV administration): 185 ± 82 nCi/g | Radioactivity in Liver ([7]; 6 h after IV administration): 49 ± 11 nCi/g | Radioactivity in Lungs ([7]; 6 h after IV administration): 993 ± 1605 nCi/g | Radioactivity in Plasma ([7]; 6 h after IV administration): 1.6 ± 0.5 nCi/mL | Radioactivity in Small Intestine ([7]; 6 h after IV administration): 62 ± 5.2 nCi/g | Radioactivity in Spleen ([7]; 6 h after IV administration): 82 ± 4.6 nCi/g | Radioactivity in Bone Marrow ([7]; 12 h after IV administration): 62 ± 9.4 nCi/g | Radioactivity in Heart ([7]; 12 h after IV administration): 28 ± 1.7 nCi/g | Radioactivity in Large Intestine ([7]; 12 h after IV administration): 83 ± 18 nCi/g | Radioactivity in Liver ([7]; 12 h after IV administration): 55 ± 7.4 nCi/g | Radioactivity in Lungs ([7]; 12 h after IV administration): 1438 ± 1218 nCi/g | Radioactivity in Plasma ([7]; 12 h after IV administration): 0.8 ± 0.2 nCi/mL | Radioactivity in Small Intestine ([7]; 12 h after IV administration): 41 ± 4.9 nCi/g | Radioactivity in Spleen ([7]; 12 h after IV administration): 77 ± 11 nCi/g | Radioactivity in Bone Marrow ([7]; 24 h after IV administration): 41 ± 6.8 nCi/g | Radioactivity in Heart ([7]; 24 h after IV administration): 24 ± 2.6 nCi/g | Radioactivity in Large Intestine ([7]; 24 h after IV administration): 48 ± 34 nCi/g | Radioactivity in Liver ([7]; 24 h after IV administration): 43 ± 4.0 nCi/g | Radioactivity in Lungs ([7]; 24 h after IV administration): 962 ± 99 nCi/g | Radioactivity in Plasma ([7]; 24 h after IV administration): 0.6 ± 0.1 nCi/mL | Radioactivity in Small Intestine ([7]; 24 h after IV administration): 47 ± 19 nCi/g | Radioactivity in Spleen ([7]; 24 h after IV administration): 85 ± 8.6 nCi/g
